Measured values from patent US20090258840A1, “METHOD AND COMPOSITIONS FOR TREATING HEMATOLOGICAL MALIGNANCIES” (Gilead Sciences, Inc., priority 2006, published 2009).
Like-named read-outs stand apart in the source and are kept apart here.

Legend:
[1] = dog, in vivo
Experimental: • Dogs were administered various prodrugs of cpr-PMEDAP as 0.2 mg/kg 30 minute IV infusions. […] Alanine was the L isomer. • Blood was collected into potassium EDTA and separated by centrifugation. Primary blood mononuclear cells (PBMCs) were collected using CPT tubes (sodium citrate). • For analysis, plasma samples were precipitated by addition of 100 μL acetonitrile containing internal standards (D4AP and TDF) to 100 μL of plasma for prodrug analysis. After protein precipitation by centrifugation, 100 μL was transferred into another tube to be dried and then reconstituted in 100 μL water with 0.2% formic acid. An aliquot of 20 μL was injected onto the column for LC/MS/MS analysis. Analysis was done using a 150×2.0 mm, 4 μm Synergi Fusion-RP 80A column (Phenomenex) and a multistage linear gradient from 0.5 to 99% acetonitrile in the presence of 0.2% formic acid at 0.25 mL/min. Analytes were detected using a Sciex API-4000 mass spectrometer using electrospray ionization in positive MRM mode. […] Separate aliquots of cells from each time point resuspended in 100% serum were used to establish the cell quantities in each sample. Cell samples were normalized to 15×10^6 cells per sample. […] 20 μL was injected for LC/MS/MS analysis using a 50×2.0 mm, 4 μm Synergi Hydro-RP 80A column (Phenomenex) and a multistage linear gradient from 0 to 95% acetonitrile in the presence of 0.2% formic acid at 1.0 mL/min. Analytes were detected using a Sciex API-4000 mass spectrometer using electrospray ionization in positive MRM mode. • After drying, samples for dephosphorylation were treated with 1 U of calf intestinal phosphatase (alkaline phosphotase, Sigma) for 2 h in manufacturer provided buffer. Samples were then adjusted to 60% acetonitrile dried and resuspended in 60% acetonitrile containing internal standards (TDF and D4AP) and analyzed for cpr-PMEDAP as described for direct PBMC analysis.

[2] = system: KG-1 (Myeloid); assay: Anti-proliferation in KG-1 cells; format: cell-based, human; settings: read-out: Anti-Proliferation EC50
Experimental: (§1) Compounds were tested using human and canine lymphoblasts (stimulated with a T-cell mitogen phytohaemagglutinin (PHA) or a B-cell mitogen pokeweed mitogen (PWM)), two T-lymphoid cell lines derived from patients with acute lymphocytic leukemia (CEM and Molt-4), two myeloid cell lines derived from patients with acute myelogenous leukemia (KG-1 and HL-60), two B-lymphoid cell lines derived from Burkitt's lymphoma (Daudi and Raji), a B-lymphoid cell line from non-Hodgkin's lymphoma (RL), a T-lymphoid cell line from cutaneous T-lymphoma (PM-1), and a monocytic cell line from histiocytic lymphoma (U937). Lymphoblasts (150,000 cells per microtiter well) and leukemia/lymphoma cell lines (30,000 cells per well) were incubated with 5-fold serial dilutions of compounds for 3 days.

[3] = system: Molt 4 (T-lymphoid); assay: Anti-proliferation in Molt 4 cells; format: cell-based, human; settings: read-out: Anti-Proliferation EC50
Experimental: as §1

[4] = system: lymphoblasts and leukemia/lymphoma cell lines; assay: Anti-proliferation, EC50 range over the cell panel; format: cell-based; settings: range over a variety of lymphoblasts and leukemia/lymphoma cell lines
Experimental: A variety of compounds that are used for treatment of hematologic malignancies were also tested, including a DNA polymerase inhibitor (ara-C), DNA polymerase/ribonucleotide reductase inhibitors (cladribine, clofarabine, fludarabine, gemcitabine), an adenosine deaminase inhibitor (deoxycoformycin), a DNA methylation inhibitor (decitabine), a […] (doxorubicin), and a mitosis inhibitor (vincristine). All compounds, with the exception of doxorubicin and vincristine, are nucleoside analogs; ara-C, gemcitabine, and decitabine are cytosine analogs and the rest are adenosine analogs. cpr-PMEDAP and PMEG can be considered adenosine and guanosine analogs, respectively. Compounds were tested using human and canine lymphoblasts (stimulated with a T-cell mitogen phytohaemagglutinin (PHA) or a B-cell mitogen pokeweed mitogen (PWM)), two T-lymphoid cell lines derived from patients with acute lymphocytic leukemia (CEM and Molt-4), two myeloid cell lines derived from patients with acute myelogenous leukemia (KG-1 and HL-60), two B-lymphoid cell lines derived from Burkitt's lymphoma (Daudi and Raji), a B-lymphoid cell line from non-Hodgkin's lymphoma (RL), a T-lymphoid cell line from cutaneous T-lymphoma (PM-1), and a monocytic cell line from histiocytic lymphoma (U937).
Lymphoblasts (150,000 cells per microtiter well) and leukemia/lymphoma cell lines (30,000 cells per well) were incubated with 5-fold serial dilutions of compounds for 3 days. BrdU assay was performed as follows: Lymphoblasts were incubated with 5-fold serial dilutions of compounds in microtiter plates (150,000 cells per well) for 3 days. On Day 3, cells were labeled with 10 μM BrdU for 3 hrs and the amount of BrdU incorporated into cellular DNA was quantified by Enzyme-Linked Immunosorbent Assay (ELISA). Alternatively, cells were incubated with 1 mg/mL XTT reagent (sodium 3,3′-[1[(phenylamino) carbonyl]-3,4-tetrazolium]-bis(4-methoxy-6-nitro) benzene sulfonic acid hydrate) and 1% PMS (phenazine methosulfate) for 2 hrs, and color change (mitochondrial dehydrogenase reduces yellow-colored XTT to orange-colored formazan salt) was quantified. […] Assays were repeated 2-20 times, until the standard error of the mean (SEM) became smaller than 50% of the mean value.

[5] = system: PM-1 (T-lymphoid); assay: Anti-proliferation in PM-1 cells; format: cell-based, human; settings: read-out: Anti-Proliferation EC50
Experimental: as §1

[6] = system: RL (B-lymphoid); assay: Anti-proliferation in RL cells; format: cell-based; settings: Homo sapiens, 72 h, 3 days incubation
Experimental: as §1

[7] = system: Daudi (B-lymphoid); assay: Anti-proliferation in Daudi cells; format: cell-based, human; settings: 3 days incubation
Experimental: as §1

[8] = system: CEM (T-lymphoid); assay: Anti-proliferation in CEM cells; format: cell-based, human; settings: read-out: Anti-Proliferation EC50
Experimental: as §1

[9] = system: HL-60 (Myeloid); assay: Anti-proliferation in HL-60 cells; format: cell-based, human; settings: read-out: Anti-Proliferation EC50
Experimental: as §1

[10] = system: PHA-blast (human T-cells); assay: Anti-proliferation in human PHA-lymphoblasts (BrdU/XTT); format: cell-based; settings: read-out: Anti-Proliferation EC50
[11] = system: U937 (Monocytic); assay: Anti-proliferation in U937 cells; format: cell-based, human; settings: read-out: Anti-Proliferation EC50
[12] = system: Raji (B-lymphoid); assay: Anti-proliferation in Raji cells; format: cell-based, human; settings: 3 days incubation
Experimental: as §1

[13] = system: PWM-blast (canine B-cells); assay: Anti-proliferation in canine PWM-lymphoblasts (BrdU/XTT); format: cell-based; settings: Canis lupus familiaris, B-cell, 72 h, 3 days incubation
[14] = system: PHA-blast (canine T-cells); assay: Anti-proliferation in canine PHA-lymphoblasts (BrdU/XTT); format: cell-based; settings: Canis lupus familiaris, T-cell, 72 h, 3 days incubation
[15] = system: PWM-blast (human B-cells); assay: Anti-proliferation in human PWM-lymphoblasts (BrdU/XTT); format: cell-based; settings: B-cell, 72 h, 3 days incubation
[16] = Hygroscopicity; format: physicochemical
[17] = system: a variety of tumor cell lines; settings: in vitro cell culture; cited from earlier work
[18] = Homo sapiens, 72 h, KG-1 (Myeloid), 3 days incubation
[19] = Homo sapiens, 72 h, Molt 4 (T-lymphoid), 3 days incubation
[20] = Homo sapiens, 72 h, PM-1 (T-lymphoid), 3 days incubation
[21] = Homo sapiens, 72 h, CEM (T-lymphoid), 3 days incubation
[22] = Homo sapiens, 72 h, HL-60 (Myeloid), 3 days incubation
[23] = Homo sapiens, U-937, 72 h, U937 (Monocytic), 3 days incubation
[24] = T-cell, 72 h, PHA-blast (human T-cells), 3 days incubation
[25] = KG-1 (Myeloid), 3 days incubation
[26] = Molt 4 (T-lymphoid), 3 days incubation
[27] = PM-1 (T-lymphoid), 3 days incubation
[28] = CEM (T-lymphoid), 3 days incubation
[29] = HL-60 (Myeloid), 3 days incubation
[30] = PHA-blast (human T-cells), 3 days incubation
[31] = U937 (Monocytic), 3 days incubation

| Structure (SMILES) | EC50 [2, 18] [nM] | EC50 [3, 19] [nM] | EC50 [4] [nM] | EC50 [5, 20] [nM] | EC50 [6] [nM] | EC50 ([7]; Homo sapiens, 72 h) [nM] | EC50 [8, 21] [nM] | EC50 [9, 22] [nM] | EC50 ([10]; Homo sapiens, T-cell, 72 h) [nM] | EC50 [11, 23] [nM] | EC50 ([12]; Homo sapiens, 72 h) [nM] | also measured |
| --- | --- | --- | --- | --- | --- | --- | --- | --- | --- | --- | --- | --- |
| C[C@H](NP(=O)(COCCn1cnc2c(NC3CC3)nc(N)nc21)Oc1ccccc1)C(=O)OC(C)(C)C (single isomer, unassigned) [MonoAlatBu(A)] |  |  |  |  |  |  |  |  |  |  |  | PBMC to Plasma ratio [1]: 19 |
| Nc1ccn([C@@H]2O[C@H](CO)[C@@H](O)[C@@H]2O)c(=O)n1 [Ara-C, Cytarabine] | 56 | 23 | 23 to 1820 | 194 | 610 | 209 | 143 | 212 | 1820 | 38 | 23 |  |
| CC(C)OC(=O)[C@H](C)NP(=O)(COCCn1cnc2c(NC3CC3)nc(N)nc21)N[C@@H](C)C(=O)OC(C)C [BisAlaiPr] |  |  |  |  |  |  |  |  |  |  |  | PBMC to Plasma ratio [1]: 1.2 |
| Nc1nc(Cl)nc2c1ncn2[C@H]1C[C@H](O)[C@@H](CO)O1 [Cladribine] | 89 | 74 |  | 40 | 4 | 525 | 1170 | 50 | 296 | 20 | 12 |  |
| Nc1nc(Cl)nc2c1ncn2[C@@H]1O[C@H](CO)[C@@H](O)[C@@H]1F [Clofarabine] | 60 | 25 | 25 to 418 | 145 | 49.5 | 221 | 418 | 73 | 62 | 37 | 19.4 | EC50 [13]: 93 nM; EC50 [14]: 146 nM; EC50 [15]: 126 nM |
| CCOC(=O)C(C)NP(=O)(COCCn1cnc2c(NC3CC3)nc(N)nc21)NC(C)C(=O)OCC (stereo not drawn) [Compound 1] | 1040 | 27.3 | 27 to 1040 | 125 | 78 | 27 | 156 | 214 |  | 394 | 89 | EC50 [13]: 14 nM; hygroscopicity [16]: hygroscopic; EC50 [14]: 30 nM; EC50 [10, 24]: 135 nM; EC50 [15]: 42 nM |
| Nc1ncn([C@H]2C[C@H](O)[C@@H](CO)O2)c(=O)n1 [Decitabine] |  |  |  |  |  |  |  |  | 204 |  |  | EC50 ([2]; Homo sapiens, KG-1, 72 h): 83 nM; EC50 ([3]; Homo sapiens, MOLT-4, 72 h): 580 nM; EC50 ([5]; Homo sapiens, T-lymphoid, 72 h): > 20000 nM; EC50 ([8]; Homo sapiens, T-lymphoid, 72 h): 3000 nM; EC50 ([9]; Homo sapiens, HL-60, 72 h): 3830 nM; EC50 ([11]; Homo sapiens, U-937, 72 h): 77 nM |
| OC[C@H]1O[C@@H](n2cnc3c2NC=NC[C@H]3O)C[C@@H]1O [Deoxy coformycin] | > 200000 | > 200000 | > 200000 |  |  |  |  | > 200000 | > 200000 | > 200000 |  |  |
| COc1cccc2c1C(=O)c1c(O)c3c(c(O)c1C2=O)C[C@@](O)(C(=O)CO)C[C@@H]3O[C@H]1C[C@H](N)[C@H](O)[C@H](C)O1 [Doxorubicin] | 28 | 1.2 |  | 29.5 | 25 | 3.8 |  | 24 | 7.6 | 13 | 8.6 |  |
| Nc1nc(F)nc2c1ncn2[C@@H]1O[C@H](CO)[C@@H](O)[C@@H]1O [Fludarabine des-phosphate] | 4520 | 1550 |  | 12900 |  |  | > 40000 | 1770 | 1100 | 300 |  |  |
| Nc1nc(NC2CC2)c2ncn(CCOCP(=O)(O)O)c2n1 [GS-8369, 9-(2-phosphonylmethoxyethyl)-N^6-cyclopropyl-2,6-diaminopurine] |  |  |  |  |  |  |  |  |  |  |  | EC50 [2, 25]: 1110 nM; EC50 [3, 26]: 1470 nM; EC50 [5, 27]: 6720 nM; antiproliferative and differentiation-inducing effect [17]: effective; EC50 [7]: 1840 nM; EC50 [8, 28]: 2220 nM; EC50 [9, 29]: 1610 nM; EC50 [10, 30]: 2350 nM; EC50 [11, 31]: 4480 nM |
| Nc1ccn([C@@H]2O[C@H](CO)[C@@H](O)C2(F)F)c(=O)n1 [Gemcitabine] | 5.7 | 8.5 | 3.4 to 18 | 16 | 18 | 6 | 21 | 8.6 |  | 31 | 3.4 | EC50 [10, 24]: 9.6 nM |
| CC(C)OC(=O)[C@H](C)NP(=O)(COCCn1cnc2c(NC3CC3)nc(N)nc21)Oc1ccccc1 (stereo partly drawn) [MonoAlaiPr] |  |  |  |  |  |  |  |  |  |  |  | PBMC to Plasma ratio [1]: 17 |
| C[C@H](NP(=O)(COCCn1cnc2c(NC3CC3)nc(N)nc21)Oc1ccccc1)C(=O)OC(C)(C)C (stereo partly drawn) [MonoAlatBu] |  |  |  |  |  |  |  |  |  |  |  | PBMC to Plasma ratio [1]: 12 |
| Nc1nc(N)c2ncn(CCOCP(=O)(O)O)c2n1 [PMEDAP, 9-(2-phosphonylmethoxyethyl)-2,6-diaminopurine] | 7630 | 27900 |  | 22700 |  | 14000 | 19900 | 21700 |  | 24400 | 24900 | EC50 [10, 24]: 8950 nM |
| Nc1nc2c(ncn2CCOCP(=O)(O)O)c(=O)[nH]1 [PMEG, 9-(2-phosphonylmethoxyethyl)guanine] |  |  |  |  |  |  |  |  |  |  |  | EC50 [2, 25]: 2930 nM; EC50 [3, 26]: 1740 nM; EC50 [5, 27]: 4020 nM; EC50 [7]: 994 nM; EC50 [8, 28]: 5200 nM; EC50 [9, 29]: 3920 nM; EC50 [10, 30]: 1680 nM; EC50 [11, 31]: 4010 nM; EC50 [12]: 2720 nM |
| CC[C@]1(O)C[C@H]2CN(CCc3c([nH]c4ccccc34)[C@@](C(=O)OC)(c3cc4c(cc3OC)N(C=O)[C@H]3[C@@](O)(C(=O)OC)[C@H](OC(C)=O)[C@]5(CC)C=CCN6CC[C@]43[C@@H]65)C2)C1 [Vincristine] | 3.2 | 0.4 | 0.6 to 5.3 | 5.3 | 1.4 | 0.6 | 2 | 2 |  | 2.8 | 2.5 | EC50 [13]: 0.9 nM; EC50 [14]: 0.9 nM; EC50 [10, 24]: 2.4 nM; EC50 [15]: 0.9 nM |
